Experimental data published in patent publication US6432883B1, “Methods of treating plants with glycolic acid” (Emerald BioAgriculture Corporation, priority 2000, dated 2002).

Assays:
cabbage [1] = experiment: Cabbage plant growth stimulation: fresh and dry weights; assay type: in vivo; settings: 5, 15 or 50 ppm spray, FIGS. 1 and 2
Method: Market Prize, F1 cabbage seed, lot 88955, was purchased from Harris Seeds, Inc. (Rochester, N.Y.) and grown 2 plants per 4″×4″×4″ pot, 1 pot per experimental unit and 6 experimental units per each of 4 replications. The plants were spray-treated first at 2 true leaves and again 7 days later with 8 ml solution per pot.
The treatments included a non-treated control (NTC), 0.05% Breakthru® (a silicone-based surfactant obtained from Goldschmidt Chemical, Hopewell, Va.) control, and 5, 15 or 50 ppm of either Glypure® (F12; 99% high purity crystalline glycolic acid), or ammonia-neutralized Glypure® [F18; a 50% (w/v) solution made by neutralizing 70% high purity glycolic acid from DuPont with ammonium hydroxide to a pH of 4.4. Growth stimulation was assessed by measuring both the fresh and dry weights of the plants.

cabbage [2] = experiment: Cabbage drought stress: fresh and dry weights; assay type: in vivo
Method: Market Prize, F1 cabbage seed, lot 88955, as described in example 7, was treated identically as in example 7, except that drought stress was imposed by withholding water 7 days following the second spray and continuing to withhold water for 13 sequential days thereafter. Drought tolerance was assessed by measuring both the fresh and dried weights of the plants.

Sclerotinia minor = experiment: Colony radius of plant pathogen on amended potato dextrose agar; assay type: cell-based; settings: in PDA, 4 days, about 23° C., FIG. 5
From the text: Sclerotinia minor culture SaM-18 was received from Krishna Subbarro, Ph.D., Univ. Calif., Davis. Potato dextrose agar (PDA) powder was purchased from Baltimore Biological Laboratory, Inc. (BBL), ammonium glycolate and glycolic acid from DuPont Specialty Chemicals and BreakThru® surfactant from Goldschmidt Chemical Corp.
PDA was made, poured into sterile disposable petri dishes (100×15 mm) and inoculated with S. minor sclerotia to start new cultures on day zero. These cultures had reached an appropriate stage of maturation for use for use in the test after two weeks of growth. Multiple 1 liter containers of PDA were made and autoclaved on day 14. These PDA containers remained in the circulating water bath at 46° C. until the solutions were ready for addition (about 2 hrs.). The glycolic acid-containing compositions were added to the 46° C. PDA through a syringe-tip 0.2 μm-pore sterile filtration disc in a positive laminar-flow sterile hood and thoroughly mixed before returning to the 46° C. water bath to await pouring. Stacks of 22 dishes were poured for each medium type and allowed to solidify and cool overnight.
On day 15, soft, white to gray, sclerotial clumps of hyphae were picked from the culture dishes with heat sterilized forceps and one clump was transferred to the center of each test medium dish. Twenty dishes of each inoculated medium were stacked and replaced into the plastic sleeves they were originally packaged in for incubation at room temperature (about 23° C.). After 4 days of growth, some of the cultures had just reached the edges of the medium. The radius of each colony was measure in mm.
Treatments were water controls, 0.05% surfactant controls, 5, 15, 50, 75 and 100 ppm of glycolic acid (F12) and 5, 15, 50, 100 and 750 ppm of ammonia-neutralized glycolic acid (F18; i.e., ammonium glycolate).

N.O=C(O)CO [F18, ammonium glycolate]
plant growth (fresh and dry weights) compared to the controls (cabbage [1]): statistically significantly stimulated plant growth | plant growth compared to equivalent amounts of F12 (cabbage [1]): stimulated plant growth to a greater extent | resistance to the effects of drought stress compared to equivalent amounts of F12 (cabbage [2]; 5, 15 and 50 ppm, plant weight): statistically significantly greater effect | fresh weight of the cabbage compared to controls (cabbage [2]; drought, water withheld 13 days, 5, 15, 50 ppm, FIG. 3): statistically significantly increased | dry weight of the cabbage compared to controls (cabbage [2]; drought, water withheld 13 days, 5, 15, 50 ppm, FIG. 4): statistically significantly increased | Sclerotinia growth compared to equivalent amounts of glycolic acid (Sclerotinia minor): significantly more | growth of Sclerotinia minor (colony radius) compared to controls (Sclerotinia minor): statistically significantly increased the growth
